Data as given in patent publication US10761087B2, “Choroidal neovascularization suppressor or drusen formation suppressor, and method for assessing or screening for same” (Link Genomics, Inc., priority 2015, dated 2020).
“Also recorded” adds a separate entry of the source. Where two headings read alike, the source gives them in different places.

Columns and labels:
[1] = system: RPE cells (ARPE-19); experiment: Focus (drusen-like structure) formation suppression in EMT induction model of RPE cells; assay type: cell-based, human; details: for IC50: Homo sapiens; for Suppression of drusen-like structure formed in the RPE cell model: FIG. 35 to 39
Description: RPE cells (ARPE-19) were seeded on a plate, and incubated for 5 days at 37° C. […] As a control of EMT induction, a sample to which a compound to be assessed (test drug) is not added was used. After 48 hours from EMT induction, the cells were fixed by treating with a 4% paraformaldehyde solution for 30 minutes at room temperature, and then washed three times with PBS. The cells were treated with a 0.2% Triton-X/PBS solution for 5 minutes, and washed three times with PBS. […] The fluorescent-stained cells were imaged by using an Image Express Micro (available from Molecular Devices), and digitized by using a MetaXpress2.0 (available from Molecular Devices). By analyzing the degree of formation of Focus (Focus level) from the numerical data, a Focus formation suppressing rate was calculated according to the following Formula 1 on the basis of the numerical value at the time of no addition of a compound, and the EMT suppressive effect in each compound was verified. The degree of formation of Focus (Focus level) was determined according to the number and the volume of Focus as indexes.
IC50 in the table was calculated using the following Formula 2.
A: Higher concentration sandwiching 50%
B: Lower concentration sandwiching 50%
C: Inhibition rate at lower concentration sandwiching 50%
D: Inhibition rate at higher concentration sandwiching 50%
RPE cells (ARPE-19) were seeded on a plate, and incubated for 5 days at 37° C. […] As a control of EMT induction, a sample to which a compound to be assessed (test drug) is not added was used. The cells after observation were fixed by treating with a 4% paraformaldehyde solution for 30 minutes at room temperature, and then washed three times with PBS. The cells were treated with a 0.2% Triton-X/PBS solution for 5 minutes, and washed three times with PBS. […] The fluorescent-stained cells were imaged by using an Image Express Micro (available from Molecular Devices), and digitized by using a MetaXpress2.0 (available from Molecular Devices). By analyzing the degree of formation of Focus from the numerical data, a Focus formation suppressing rate was calculated on the basis of the case without addition of a compound and the case without EMT induction, and the EMT suppressive effect in each compound was verified. […] After washing three times with methanol, the cells were dried for 3 hours at room temperature. The dried cells were observed under a microscope.

[2] = system: EMT markers (mesenchymal markers, ECM) in RPE cells (ARPE-19); experiment: Change in expression of EMT markers (real-time PCR) in EMT-induced RPE cells; assay type: cell-based, human; details: for Expression of EMT markers at the time of EMT induction (FIG. 8 to FIG. 12): flufenamic acid aluminum 28 μM, mefenamic acid 39 μm, sulindac 100 μM, tiaprofenic acid 1000 μM, seratrodast 31 μM; for Enhancement of expression of Fibronectin, Snail and vimentin (mesenchymal markers) / EMT suppression (FIG. 3 to FIG. 7) / Expression of EMT markers other than the ten common markers / Expression of Snail, Slug, CDH3, MMP1, MMP7, COL5A3, COL6A3, LAMC2, HMMR, TNC: EMT-induced ARPE-19, 48 hours; for Enhancement of expression of Fibronectin, Snail and vimentin (mesenchymal markers): compound at Cmax, ½ of Cmax or ¼ of Cmax; for EMT suppression (FIG. 3 to FIG. 7) / Expression of EMT markers other than the ten common markers / Expression of Snail, Slug, CDH3, MMP1, MMP7, COL5A3, COL6A3, LAMC2, HMMR, TNC: oxaprozin 300 μM, epalrestat 30 μM, zafirlukast 3 μM, amlexanox 30 μM, zaltoprofen 30 μM
Description: RPE cells (ARPE-19) were seeded on a plate, and incubated for 5 days at 37° C. For the RPE cells, EMT was induced in the conditions described in Test example 1-1, and respective compounds (oxaprozin, epalrestat, zafirlukast, amlexanox, zaltoprofen) were added simultaneously, and the cells were collected after 48 hours from induction of EMT. As a control, a sample to which a compound to be assessed (test drug) is not added was used. The collected cells were washed with PBS, and 350 μL of an RLT buffer was added to prepare a lysate for RNA extraction. The respective compounds were used in the following concentrations. Oxaprozin: 300 μM, epalrestat: 30 μM, zafirlukast: 3 μM, amlexanox: 30 μM, zaltoprofen: 30 μM. Total RNA was extracted from the lysate using an RNeasy Micro kit (QIAGEN, #74004), and from 2 μg of the obtained RNA, cDNA was prepared using a SuperScript III First-Strand Synthesis SuperMix for qRT-PCR (Invitrogen, #11752-250). Using 50 ng of the obtained cDNA as a template, a real-time PCR (ABI Prism 7500 Sequence Detection System) was conducted according to the manufacturer's protocol, and expression of mRNA of each gene was quantified. Specific primers for respective genes were purchased from Invitrogen. Ct (Threshold Cycle) value of each gene was calculated as a percentage to a non-treated sample after normalization by endogenous control.
Five compounds (flufenamic acid aluminum (addition concentration: 28 μM (Cmax)), mefenamic acid (addition concentration: 39 μm (Cmax)), sulindac (addition concentration: 100 μM), tiaprofenic acid (addition concentration: 1000 μM), and seratrodast (addition concentration: 31 μM (Cmax))) were assessed for change in expression of EMT markers in the same manner as in Test example 2-1. The results are shown in FIG. 8 to FIG. 12, respectively.
(§1) RPE cells (ARPE-19) were seeded on a plate, and incubated for 5 days at 37° C. […] Each compound was added in a concentration of Cmax, ½ of Cmax or ¼ of Cmax. As a control, a sample to which a compound to be assessed (test drug) is not added was used. The collected cells were washed with PBS, and 350 μL of an RLT buffer was added to prepare a lysate for RNA extraction. Total RNA was extracted from the lysate using an RNeasy Micro kit (QIAGEN, #74004), and from 2 μg of the obtained RNA, cDNA was prepared using a SuperScript III First-Strand Synthesis SuperMix for qRT-PCR (Invitrogen, #11752-250). Using 50 ng of the obtained cDNA as a template, a real-time PCR (ABI Prism 7500 Sequence Detection System) was conducted according to the manufacturer's protocol, and expression of mRNA of each gene was quantified. Specific primers for respective genes were purchased from Invitrogen. Ct (Threshold Cycle) value of each gene was calculated as a percentage to a non-treated sample after normalization by endogenous control. For each result, a significant test (Student t test) was conducted, and when p<0.05, the result was marked with “*”, and when p<0.01, the result was marked with “**”.
RPE cells (ARPE-19) were seeded on a plate, and incubated for 5 days at 37° C. For the RPE cells, EMT was induced in the conditions described in Test example 5-1, and the five representative compounds (oxaprozin, epalrestat, zafirlukast, amlexanox, zaltoprofen) were added simultaneously, and the cells were collected after 48 hours from induction of EMT. As a control, a sample to which a compound to be assessed (test drug) is not added was used. The collected cells were washed with PBS, and 350 μL of an RLT buffer was added to prepare a lysate for RNA extraction. Total RNA was extracted from the lysate using an RNeasy Micro kit (QIAGEN, # 74004), and from 2 μg of the obtained RNA, cDNA was prepared using a SuperScript III First-Strand Synthesis SuperMix for qRT-PCR (Invitrogen, # 11752-250). […]

[3] = cited from earlier work
[4] = system: VEGF; experiment: Change in expression of VEGF mRNA (real-time PCR) in EMT-induced RPE cells; assay type: cell-based, human; details: EMT-induced ARPE-19, 48 hours, compound at Cmax, ½ of Cmax or ¼ of Cmax
Description: as §1
The results are shown in FIG. 16 or FIG. 17, respectively.
The VEGF suppressive effect was assessed using the cell model as described above in the same manner as in Test example 2-3. The results are shown in FIG. 18 to FIG. 20, respectively.

[5] = Table 1, EMT-induced ARPE-19, compound added simultaneously, 48 hours, read-out: IC50 (Focus formation suppressing rate, EMT suppressive effect)
[6] = RPE, Table 2, same manner as Test example 6-1, read-out: IC50 (Focus formation suppressing rate, EMT suppressive effect)
[7] = Pharmaceutical Interview Form, single-dose administration, read-out: Cmax
[8] = quoted in Test examples 2-3, 2-4, 2-5, read-out: Cmax (as quoted in the VEGF test examples)
[9] = Test example 7, EMT-induced ARPE-19, 48 hours, read-out: IC50 values in the drusen-like structure suppressing tests
[10] = Table 3, from the interview form and the package insert of each drug, read-out: Cmax

## CC(C)Cc1ccc(C(C)C(=O)O)cc1 (stereo not shown) [Ibuprofen, ibuprofen]
[1]; [5]
  IC50: 18 µM

## CC1=C(CC(=O)O)c2cc(F)ccc2/C1=C\c1ccc([S+](C)[O-])cc1 (stereo not shown) [Sulindac, sulindac]
[2]
  Expression of EMT markers at the time of EMT induction (FIG. 8 to FIG. 12): significantly suppress expression of EMT markers at the time of EMT induction; also recorded: lower expression of EMT markers at the time of EMT induction
[1]; [6]
  IC50: 35.3 µM
[3]; [7]
  Cmax: 10.1 µM

## COc1ccc2c(c1)c(CC(=O)O)c(C)n2C(=O)c1ccc(Cl)cc1 [indomethacin]
[2]
  Enhancement of expression of Fibronectin, Snail and vimentin (mesenchymal markers): did not suppress enhancement of expression of these
[4]
  Enhancement of VEGF mRNA expression by EMT induction: did not suppress enhancement of VEGF expression
[3]; [8]
  Cmax: 2.79 µM

## CCc1cccc2c3c([nH]c12)C(CC)(CC(=O)O)OCC3 (stereo not shown) [Etodolac, etodolac]
[2]
  Enhancement of expression of Fibronectin, Snail and vimentin (mesenchymal markers): did not suppress enhancement of expression of these
[4]
  Enhancement of VEGF mRNA expression by EMT induction: did not suppress enhancement of VEGF expression
[3]; [8]
  Cmax: 42.5 µM

## CC(/C=C1\SC(=S)N(CC(=O)O)C1=O)=C\c1ccccc1 [Epalrestat, epalrestat]
[1]; [5]
  IC50: 16.9 µM
[1]; [9]
  IC50: 16.9 µM
[3]; [7]
  Cmax: 12.2 µM
[3]; [10]
  Cmax: 12.2 µM
[3]; [8]
  Cmax: 12.2 µM

## O=C(Nc1cccc2c(=O)cc(-c3nnn[nH]3)oc12)c1ccc(OCCCCc2ccccc2)cc1 [Pranlukast, pranlukast]
[1]; [5]
  IC50: 1.1 µM

## Cc1cccc(Nc2ccccc2C(=O)O)c1C [Mefenamic acid, mefenamic acid]
[2]
  Enhancement of expression of Fibronectin, Snail and vimentin (mesenchymal markers): suppressed enhancement of expression of these in a concentration dependent manner
  Expression of EMT markers at the time of EMT induction (FIG. 8 to FIG. 12): significantly suppress expression of EMT markers at the time of EMT induction; also recorded: lower expression of EMT markers at the time of EMT induction
[4]
  Enhancement of VEGF mRNA expression by EMT induction: suppressed enhancement of VEGF expression in a concentration dependent manner
[4]; listed as mefenamic acid
  Enhancement of VEGF mRNA expression by EMT induction: suppress enhancement of mRNA expression of VEGF
[1]; [6]
  IC50: 12.4 µM
[3]; [7]
  Cmax: 38.5 µM
[3]; [8]
  Cmax: 38.5 µM

## CC(C(=O)O)c1ccc(-c2ccccc2)c(F)c1 (stereo not shown) [Flurbiprofen, flurbiprofen]
[1]; [5]
  IC50: 32.6 µM

## CC1=C(C)C(=O)C(C(CCCCCC(=O)O)c2ccccc2)=C(C)C1=O (stereo not shown) [Seratrodast, seratrodast]
[1]; [6]
  IC50: 54.6 µM
[3]; [7]
  Cmax: 31 µM
[3]; [8]
  Cmax: 31 µM

## CC(C(=O)O)c1ccc(C(=O)c2ccccc2)s1 (stereo not shown) [Tiaprofenic acid, tiaprofenic acid]
[2]
  Expression of EMT markers at the time of EMT induction (FIG. 8 to FIG. 12): significantly suppress expression of EMT markers at the time of EMT induction; also recorded: lower expression of EMT markers at the time of EMT induction
[1]; [6]
  IC50: 374 µM
[3]; [7]
  Cmax: 69.2 µM

## COc1cc(C(=O)NS(=O)(=O)c2ccccc2C)ccc1Cc1cn(C)c2ccc(NC(=O)OC3CCCC3)cc12 [Zafirlukast, zafirlukast]
[2]
  EMT suppression (FIG. 3 to FIG. 7): significantly suppress EMT
  Expression of EMT markers other than the ten common markers: decrease in expression was observed in MMP3, COL13A1, LAMB3, or CSPG4
  Expression of Snail, Slug, CDH3, MMP1, MMP7, COL5A3, COL6A3, LAMC2, HMMR, TNC: suppressed expression
[1]; EMT-induced ARPE-19, 48 hours
  Suppression of drusen-like structure formed in the RPE cell model: suppresses a drusen-like structure formed in the RPE cell model in a concentration-dependent manner
[1]; [5]
  IC50: 3.8 µM
[1]; [9]
  IC50: 3.8 µM
[3]; [7]
  Cmax: 0.8 µM
[3]; [10]
  Cmax: 0.8 µM

## CC(C)c1ccc2oc3nc(N)c(C(=O)O)cc3c(=O)c2c1 [Amlexanox, amlexanox]
[2]
  EMT suppression (FIG. 3 to FIG. 7): significantly suppress EMT
  Expression of EMT markers other than the ten common markers: decrease in expression was observed in ZEB2, CDH2, MMP3, COL1A1, and COL13A1
  Expression of Snail, Slug, CDH3, MMP1, MMP7, COL5A3, COL6A3, LAMC2, HMMR, TNC: suppressed expression
[1]; EMT-induced ARPE-19, 48 hours
  Suppression of drusen-like structure formed in the RPE cell model: suppresses a drusen-like structure formed in the RPE cell model in a concentration-dependent manner
[1]; [5]
  IC50: 32.5 µM
[1]; [9]
  IC50: 32.5 µM
[3]; [7]
  Cmax: 16 µM
[3]; [10]
  Cmax: 16 µM
